Laboratory results as given in article PMC4072508, “Genome-Wide Prediction and Validation of Peptides That Bind Human Prosurvival Bcl-2 Proteins” (PLoS Computational Biology, 2014).
pKd: −log10 of the molar value. Where two headings read alike, the source gives them in different places.

Tests used:
[1] = biological target: T1, Bfl-1 (Homo sapiens, UniProt Q16548); experiment: Peptide SPOT array binding
T1 construct: myc- Bfl-1 SPOT array & FP; made in house
T1 sequence (Q16548 with tags, fused parts or gaps): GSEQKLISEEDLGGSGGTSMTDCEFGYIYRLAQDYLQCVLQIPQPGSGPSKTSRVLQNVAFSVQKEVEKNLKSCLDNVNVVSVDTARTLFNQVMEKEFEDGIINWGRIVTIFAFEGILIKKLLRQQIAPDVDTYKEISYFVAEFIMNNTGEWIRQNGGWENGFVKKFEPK
Experimental: (§1) Peptide SPOT arrays were synthesized using F-moc chemistry on nitrocellulose membranes at the MIT Biopolymers facility using an Intavis AutoSpot robot. Peptide spots were cut from the membrane, hydrated in 100% methanol, transferred to TBS (50 mM Tris, pH 8.1, 100 mM NaCl, 0.01% Triton X-100) with 1% bovine serum albumin (BSA), here called blocking buffer, and incubated at room temperature for ∼10 minutes. Membranes were then incubated with 10 ml of 1 µM or 100 nM c-Myc-tagged receptor (sequences in Table S6) in TBS for 1 h at room temperature. Membranes were then rinsed 3× with blocking buffer and then incubated with anti-c-myc-Cy3 antibody (Sigma Aldrich C6594) diluted 100-fold in blocking buffer for 1 hour at room temperature. Membranes were rinsed 3× with blocking buffer and scanned on a Typhoon 9400 (GE Healthcare). Images were analyzed with ImageQuant (GE Healthcare), and Cy3 intensity at 580 nm was averaged over a circular area that was equal in size for all spots for a given membrane. Typically, 5–10 known binders and their negative controls were included.

[2] = biological target: T2, Mcl-1 (Homo sapiens, UniProt Q07820); experiment: Peptide SPOT array binding
T2 construct: myc-Mcl-1 SPOT array & FP; made in house
T2 sequence (Q07820 with tags, fused parts or gaps): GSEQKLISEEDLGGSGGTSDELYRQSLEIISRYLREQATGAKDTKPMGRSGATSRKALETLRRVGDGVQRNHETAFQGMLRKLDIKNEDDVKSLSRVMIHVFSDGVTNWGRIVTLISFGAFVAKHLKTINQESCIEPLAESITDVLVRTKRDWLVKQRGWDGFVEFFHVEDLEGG
Experimental: as §1

[3] = biological target: T3, Bcl-w (Homo sapiens, UniProt Q92843, Q133R); experiment: Peptide SPOT array binding; settings: c-Myc-tagged receptor 1 µM or 100 nM, anti-c-myc-Cy3 read-out
T3 construct: myc-Bcl-w SPOT array & FP; made in house
T3 sequence (Q92843 with tags, fused parts or gaps Q133R): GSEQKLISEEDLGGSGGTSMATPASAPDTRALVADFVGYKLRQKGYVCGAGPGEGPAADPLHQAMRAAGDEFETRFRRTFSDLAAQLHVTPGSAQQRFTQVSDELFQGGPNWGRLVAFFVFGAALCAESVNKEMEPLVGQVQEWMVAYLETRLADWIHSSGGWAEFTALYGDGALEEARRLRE
Experimental: as §1

[4] = biological target: T4, Bcl-xL (Homo sapiens, UniProt Q07817); experiment: Peptide SPOT array binding; settings: c-Myc-tagged receptor 1 µM or 100 nM, anti-c-myc-Cy3 read-out
T4 construct: myc-Bcl-xL SPOT array & FP; made in house
T4 sequence (Q07817 with tags, fused parts or gaps): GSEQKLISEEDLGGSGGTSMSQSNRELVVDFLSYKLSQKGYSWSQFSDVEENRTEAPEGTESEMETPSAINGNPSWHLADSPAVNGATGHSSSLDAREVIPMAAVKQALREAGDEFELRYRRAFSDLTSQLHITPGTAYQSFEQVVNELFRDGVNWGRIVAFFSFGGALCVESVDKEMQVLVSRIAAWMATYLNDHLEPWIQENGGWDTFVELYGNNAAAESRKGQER
Experimental: as §1

[5] = biological target: T5, Bcl-2 (Homo sapiens, UniProt P10415, DEL53-91); experiment: Peptide SPOT array binding; settings: c-Myc-tagged receptor 1 µM or 100 nM, anti-c-myc-Cy3 read-out
T5 construct: myc- Bcl-2 FP; made in house
T5 sequence (P10415 with tags, fused parts or gaps DEL53-91): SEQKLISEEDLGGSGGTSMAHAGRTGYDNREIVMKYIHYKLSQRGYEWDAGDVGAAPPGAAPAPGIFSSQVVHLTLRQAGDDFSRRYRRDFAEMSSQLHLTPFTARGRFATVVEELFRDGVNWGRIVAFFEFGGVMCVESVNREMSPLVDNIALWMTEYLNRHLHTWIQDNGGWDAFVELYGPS
Experimental: as §1

[6] = tested on: prosurvival proteins Bcl-xL, Bcl-w, Bcl-2, Mcl-1 and Bfl-1; experiment: Peptide SPOT array binding, receptor not specified; design: species or system human; settings: for Reduction in SPOT array signal when control mutations were introduced: 3aD and 3eL negative controls, receptor not specified; for SPOT array binding specificity among five prosurvival proteins: array IV
Experimental: as §1

[7] = biological target: T2, Mcl-1; settings: read-out: Binder class, Mcl-1, cited from earlier work
Description: Negative control mutatio ...

[8] = biological target: T4, Bcl-xL; settings: cited from earlier work
[9] = biological target: T3, Bcl-w; settings: natural BH3 peptides, interactions taken from literature; read-out: Binder class, Bcl-w; cited from earlier work
[10] = biological target: T5, Bcl-2; settings: natural BH3 peptides, interactions taken from literature; read-out: Binder class, Bcl-2; cited from earlier work
[11] = biological target: T1, Bfl-1; settings: natural BH3 peptides, interactions taken from literature; read-out: Binder class, Bfl-1; cited from earlier work
[12] = c-Myc-tagged receptor 1 µM or 100 nM, anti-c-myc-Cy3 read-out
[13] = S1 Bim variants, specific binding measured using yeast display, ref Dutta et al. (2010)
[14] = natural BH3 peptides, interactions taken from literature

Substance: EGEKEVEALKKSADWVSDWSSRP [BNIP3L]
- SPOT array signal as % of the Bim BH3 signal, Bfl-1 [1, 12]: 8%
- SPOT array signal as % of the Bim BH3 signal, Mcl-1 [2, 12]: less than 3%
- SPOT array signal as % of the Bim BH3 signal, Bcl-w [3]: less than 3%
- SPOT array signal as % of the Bim BH3 signal, Bcl-xL [4]: less than 3%
- SPOT array signal as % of the Bim BH3 signal, Bcl-2 [5]: less than 3%

Substance: MTQEVGQLLQDMGDDVYQQYRSL [Mule]
- Reduction in SPOT array signal when control mutations were introduced [6]: more than 30%
- SPOT array binding specificity among five prosurvival proteins [6]: binding specifically to Mcl-1

Substance: RLAEVCAVLLRLGDELEMIRPSV [Bok]
- Reduction in SPOT array signal when control mutations were introduced [6]: more than 30%
- SPOT array binding specificity among five prosurvival proteins [6]: binding specifically to Mcl-1

Substance: PEIWVAQEINRVGDEVNAYYARR
- pKd [7, 13]: > 6.00
- Binder class (Kd bin) [8, 13]: > 10000 nM

Substance: PEIWYAQELERIGDEVNAYYARR
- pKd [7, 13]: > 6.00
- Binder class (Kd bin) [8, 13]: > 10000 nM

Substance: PEIWYAQEAKRFGDEFNAYYARR
- pKd [7, 13]: < 5.00
- Binder class (Kd bin) [8, 13]: < 1000 nM

Substance: PEIWVAQELGRNGDEYNAYYARR
- pKd [7, 13]: < 5.00
- Binder class (Kd bin) [8, 13]: < 1000 nM

Substance: PEIWYAQELGRAGDEFNAYYARR
- pKd [7, 13]: < 5.00
- Binder class (Kd bin) [8, 13]: < 1000 nM

Substance: PEIWYAQELGRYGDEYNAYYARR
- pKd [7, 13]: < 5.00
- Binder class (Kd bin) [8, 13]: < 1000 nM

Substance: APOL6: peptide from APOL6, putative BH3 motif (KEDLKGNIDKLRALADDIDKTHKKFT)
- SPOT array signal as % of the Bim BH3 signal, Bcl-xL [4]: 17%

Substance: IIRNIARHAAQVGASMDRSIPPG [Bid (X)]
- pKd [9]: > 6.00
- pKd [10]: > 6.00
- pKd [11]: < 5.00
- pKd [7, 14]: > 6.00
- Binder class (Kd bin) [8, 14]: > 10000 nM

Substance: PEIWVAQELGRTGDEVNAYYARR
- pKd [7, 13]: > 6.00
- Binder class (Kd bin) [8, 13]: > 10000 nM

Substance: AAQRYGRELRRMSDEFVDSFKKG [Bad]
- Reduction in SPOT array signal for at least one of the negative controls, Bfl-1 ([1]; 3aD / 3eL mutations): less than 25%
- Reduction in SPOT array signal for at least one of the negative controls, Mcl-1 ([2]; 3aD / 3eL mutations): less than 25%

Substance: PEIWVAQELGRDGDEFNAYYARR
- pKd [7, 13]: < 5.00
- Binder class (Kd bin) [8, 13]: < 1000 nM

Substance: PEIWVAQEIERIGNEVNAYYARR
- pKd [7, 13]: > 6.00
- Binder class (Kd bin) [8, 13]: > 10000 nM

Substance: PEIWYAQEINRIGDEVNAYYARR
- pKd [7, 13]: > 6.00
- Binder class (Kd bin) [8, 13]: > 10000 nM

Substance: PEIWVAQEINRIGEEINAYYARR
- pKd [7, 13]: > 6.00
- Binder class (Kd bin) [8, 13]: > 10000 nM

Substance: PEIWVAQEIRRVGDENNAYYARR
- pKd [7, 13]: > 6.00
- Binder class (Kd bin) [8, 13]: > 10000 nM

Substance: PEIWVAQELKRNGDEFNAYYARR
- pKd [7, 13]: < 5.00
- Binder class (Kd bin) [8, 13]: < 1000 nM

Substance: PEIWYAQELQRNGDEFNAYYARR
- pKd [7, 13]: < 5.00
- Binder class (Kd bin) [8, 13]: < 1000 nM

Substance: PEIWVAQELKRAGEEFNAYYARR
- pKd [7, 13]: < 5.00
- Binder class (Kd bin) [8, 13]: < 1000 nM

Substance: PEIWYAQEIQRYGDEFNAYYARR
- pKd [7, 13]: < 5.00
- Binder class (Kd bin) [8, 13]: < 1000 nM

Substance: PEIWVAQELSRAGDEFNAYYARR
- pKd [7, 13]: < 5.00
- Binder class (Kd bin) [8, 13]: < 1000 nM
